Source: US4547502A, “Dihydropyridines and their use in treating cardiac conditions and hypertension” (Pfizer Inc., priority 1982, dated 1985)

These compounds were tested on spirally cut strips of rat aorta (assay: Inhibition of calcium-induced contraction of isolated rat aorta strips (concentration required to reduce the response by 50%)). Conditions: 0.75 h, in vitro, 45 millimolar potassium, contraction by calcium chloride, final calcium 2 millimolar, retest after 45 minutes with compound present, read-out: IC50 (molar concentration of the compounds required to reduce the response by 50%).
Type: cell-based
Description: The ability of the compounds to inhibit the movement of calcium into the cell is shown by their effectiveness in reducing the response of isolated […] to an increase in calcium ion concentration in vitro. The test is performed by mounting spirally cut strips of rat aorta with one end fixed and the other attached to a force tranducer. The tissue is immersed in a bath of physiological saline solution containing potassium ions at a concentration of 45 millimolar and no calcium. Calcium chloride is added to the bath with a pipette to give a final calcium ion concentration of 2 millimolar. The change in tension caused by the resulting contraction of the tissue is noted. The bath is drained and replaced with fresh saline solution and, after 45 minutes, the test is repeated with the particular compound under test present in the saline solution. The concentration of compound required to reduce the response by 50% is recorded.

Row | Compound | IC50
1 | CCOC(=O)C1=C(COCCN2CCN(c3nccs3)CC2)NC(C)=C(C(=O)OC)C1c1ccccc1Cl (stereo not shown) [Example 4] | 0.015 µM
2 | CCOC(=O)C1=C(COCCN2CCN(C3=NCCC3)CC2)NC(C)=C(C(=O)OC)C1c1ccccc1Cl (stereo not shown) [Example 1, 2-[2-(4-(1-Pyrrolin-2-yl)-piperazin-1-yl)ethoxymethyl]-4-(2-chlorophenyl)-3-ethoxycarbonyl-5-methoxycarbonyl-6-methyl-1,4-dihydropyridine] | 0.141 µM
3 | CCOC(=O)C1=C(COCCN2CCN(c3nccc(=O)[nH]3)CC2)NC(C)=C(C(=O)OC)C1c1ccccc1Cl (stereo not shown) [Example 3] | 0.036 µM
4 | CCOC(=O)C1=C(COCCN2CCN(C3=NCCN3)CC2)NC(C)=C(C(=O)OC)C1c1ccccc1Cl (stereo not shown) [Example 2] | 0.1 µM

The remaining lines, values ahead:

Row | IC50 | Compound
5 | 0.038 µM | CCOC(=O)C1=C(COCCN2CCN(c3nc(N)n[nH]3)CC2)NC(C)=C(C(=O)OC)C1c1ccccc1Cl (stereo not shown) [Example 5, 2-{2-[4-(5-Amino-1,2,4-triazol-3-yl)piperazine-1-yl]ethoxymethyl}-4-(2-chlorophenyl)-3-ethoxycarbonyl-5-methoxycarbonyl-6-methyl-1,4-dihydropyridine, bis-maleate hemihydrate]
6 | 0.1 µM | CCOC(=O)C1=C(COCCN2CCN(c3nc(N)nn3C)CC2)NC(C)=C(C(=O)OC)C1c1ccccc1Cl (single isomer, unassigned) [Example 6 (more polar isomer), 2-[2-(4-{3-amino-1-methyl-1,2,4-triazol-5-yl}-piperazin-1-yl)ethoxymethyl]-4-(2-chlorophenyl)-3-ethoxycarbonyl-5-methoxycarbonyl-6-methyl-1,4-dihydropyridine hemihydrate]
7 | 0.026 µM | CCOC(=O)C1=C(COCCN2CCN(c3nc(N)n(C)n3)CC2)NC(C)=C(C(=O)OC)C1c1ccccc1Cl (stereo not drawn) [Example 6 (least polar isomer), 2-[2-(4-{5-amino-1-methyl-1,2,4-triazol-3-yl}-piperazin-1-yl)ethoxymethyl]-4-(2-chlorophenyl)-3-ethoxycarbonyl-5-methoxycarbonyl-6-methyl-1,4-dihydropyridine]
